{"source": "the supplement of paper PMC10307832", "assay_in_all_cases": "relative viability (nuclei count vs DMSO), 5 days (fraction); higher = more cells survive", "key": {"201T": {"system": "201T", "procedure,_shortened": "(§1)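 Five library-drug doses in √10 steps were combined with a fixed anchor-drug dose, or a single drug was given alone, by pin tool to lung cancer cell lines in 1536-well plates the day after seeding. Nuclei were stained and counted after 5 days. Relative viability is the nuclei count in treated wells over that in vehicle wells, taken as the median of duplicate plates.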"}, "NCI-H727": {"system": "NCI-H727", "procedure,_shortened": "as §1"}, "NCI-H2023": {"system": "NCI-H2023", "procedure,_shortened": "as §1"}, "NCI-H460": {"system": "NCI-H460", "procedure,_shortened": "as §1"}, "COR-L 105": {"system": "COR-L 105", "procedure,_shortened": "as §1"}, "PC-3 [JPC-3]": {"system": "PC-3 [JPC-3]", "procedure,_shortened": "as §1"}, "CAL-12T": {"system": "CAL-12T", "procedure,_shortened": "as §1"}, "LK-2": {"system": "LK-2", "procedure,_shortened": "as §1"}, "HCC-15": {"system": "HCC-15", "procedure,_shortened": "as §1"}, "NCI-H1651": {"system": "NCI-H1651", "procedure,_shortened": "as §1"}, "NCI-H322M": {"system": "NCI-H322M", "procedure,_shortened": "as §1"}, "NCI-H358": {"system": "NCI-H358", "procedure,_shortened": "as §1"}, "HCC-44": {"system": "HCC-44", "procedure,_shortened": "as §1"}, "NCI-H838": {"system": "NCI-H838", "procedure,_shortened": "as §1"}, "SW 900": {"system": "SW 900", "procedure,_shortened": "as §1"}, "EMC-BAC-2": {"system": "EMC-BAC-2", "procedure,_shortened": "as §1"}, "NCI-H522": {"system": "NCI-H522", "procedure,_shortened": "as §1"}, "NCI-H520": {"system": "NCI-H520", "procedure,_shortened": "as §1"}, "LU99A": {"system": "LU99A", "procedure,_shortened": "as §1"}, "EKVX": {"system": "EKVX", "procedure,_shortened": "as §1"}, "BEN": {"system": "BEN", "procedure,_shortened": "as §1"}}, "data": [{"smiles": "Cc1csc(=NC2CCCCC2)n1/N=C/c1ccc(O)c(O)c1O", "note": "[MIM1] + CC(=O)Nc1cccc(-n2c(=O)n(C3CC3)c(=O)c3c(Nc4ccc(I)cc4F)n(C)c(=O)c(C)c32)c1 [Trametinib] (partner 0.02 µM)", "values": [{"measurement": "relative viability", "setting": "201T; first compound 0.2 µM", "value": 0.704}, {"measurement": "relative viability", "setting": "201T; first compound 0.6325 µM", "value": 0.701}, {"measurement": "relative viability", "setting": "201T; first compound 2 µM", "value": 0.736}, {"measurement": "relative viability", "setting": "201T; first compound 6.325 µM", "value": 0.605}, {"measurement": "relative viability", "setting": "201T; first compound 20 µM", "value": 0.761}, {"measurement": "relative viability", "setting": "NCI-H727; first compound 0.2 µM", "value": 0.371}, {"measurement": "relative viability", "setting": "NCI-H727; first compound 0.6325 µM", "value": 0.407}, {"measurement": "relative viability", "setting": "NCI-H727; first compound 2 µM", "value": 0.393}, {"measurement": "relative viability", "setting": "NCI-H727; first compound 6.325 µM", "value": 0.427}, {"measurement": "relative viability", "setting": "NCI-H727; first compound 20 µM", "value": 0.383}, {"measurement": "relative viability", "setting": "NCI-H2023; first compound 0.2 µM", "value": 0.505}, {"measurement": "relative viability", "setting": "NCI-H2023; first compound 0.6325 µM", "value": 0.562}, {"measurement": "relative viability", "setting": "NCI-H2023; first compound 2 µM", "value": 0.52}, {"measurement": "relative viability", "setting": "NCI-H2023; first compound 6.325 µM", "value": 0.247}, {"measurement": "relative viability", "setting": "NCI-H2023; first compound 20 µM", "value": 0.0881}, {"measurement": "relative viability", "setting": "NCI-H460; first compound 0.2 µM", "value": 0.103}, {"measurement": "relative viability", "setting": "NCI-H460; first compound 0.6325 µM", "value": 0.136}, {"measurement": "relative viability", "setting": "NCI-H460; first compound 2 µM", "value": 0.118}, {"measurement": "relative viability", "setting": "NCI-H460; first compound 6.325 µM", "value": 0.0462}, {"measurement": "relative viability", "setting": "NCI-H460; first compound 20 µM", "value": 0.0293}, {"measurement": "relative viability", "setting": "COR-L 105; first compound 0.2 µM", "value": 0.45}, {"measurement": "relative viability", "setting": "COR-L 105; first compound 0.6325 µM", "value": 0.548}, {"measurement": "relative viability", "setting": "COR-L 105; first compound 2 µM", "value": 0.44}, {"measurement": "relative viability", "setting": "COR-L 105; first compound 6.325 µM", "value": 0.406}, {"measurement": "relative viability", "setting": "COR-L 105; first compound 20 µM", "value": 0.439}, {"measurement": "relative viability", "setting": "PC-3 [JPC-3]; first compound 0.2 µM", "value": 0.643}, {"measurement": "relative viability", "setting": "PC-3 [JPC-3]; first compound 0.6325 µM", "value": 0.687}, {"measurement": "relative viability", "setting": "PC-3 [JPC-3]; first compound 2 µM", "value": 0.655}, {"measurement": "relative viability", "setting": "PC-3 [JPC-3]; first compound 6.325 µM", "value": 0.521}, {"measurement": "relative viability", "setting": "PC-3 [JPC-3]; first compound 20 µM", "value": 0.558}, {"measurement": "relative viability", "setting": "CAL-12T; first compound 0.2 µM", "value": 0.406}, {"measurement": "relative viability", "setting": "CAL-12T; first compound 0.6325 µM", "value": 0.378}, {"measurement": "relative viability", "setting": "CAL-12T; first compound 2 µM", "value": 0.341}, {"measurement": "relative viability", "setting": "CAL-12T; first compound 6.325 µM", "value": 0.316}, {"measurement": "relative viability", "setting": "CAL-12T; first compound 20 µM", "value": 0.249}, {"measurement": "relative viability", "setting": "LK-2; first compound 0.2 µM", "value": 1.02}, {"measurement": "relative viability", "setting": "LK-2; first compound 0.6325 µM", "value": 0.693}, {"measurement": "relative viability", "setting": "LK-2; first compound 2 µM", "value": 0.625}, {"measurement": "relative viability", "setting": "LK-2; first compound 6.325 µM", "value": 1.02}, {"measurement": "relative viability", "setting": "LK-2; first compound 20 µM", "value": 0.236}, {"measurement": "relative viability", "setting": "HCC-15; first compound 0.2 µM", "value": 0.363}, {"measurement": "relative viability", "setting": "HCC-15; first compound 2 µM", "value": 0.372}, {"measurement": "relative viability", "setting": "HCC-15; first compound 6.325 µM", "value": 0.377}, {"measurement": "relative viability", "setting": "HCC-15; first compound 20 µM", "value": 0.133}, {"measurement": "relative viability", "setting": "NCI-H1651; first compound 0.2 µM", "value": 0.856}, {"measurement": "relative viability", "setting": "NCI-H1651; first compound 0.6325 µM", "value": 0.9}, {"measurement": "relative viability", "setting": "NCI-H1651; first compound 2 µM", "value": 0.866}, {"measurement": "relative viability", "setting": "NCI-H1651; first compound 6.325 µM", "value": 0.728}, {"measurement": "relative viability", "setting": "NCI-H1651; first compound 20 µM", "value": 0.843}, {"measurement": "relative viability", "setting": "NCI-H322M; first compound 0.2 µM", "value": 0.508}, {"measurement": "relative viability", "setting": "NCI-H322M; first compound 0.6325 µM", "value": 0.596}, {"measurement": "relative viability", "setting": "NCI-H322M; first compound 2 µM", "value": 0.456}, {"measurement": "relative viability", "setting": "NCI-H322M; first compound 6.325 µM", "value": 0.526}, {"measurement": "relative viability", "setting": "NCI-H322M; first compound 20 µM", "value": 0.577}, {"measurement": "relative viability", "setting": "NCI-H358; first compound 0.2 µM", "value": 0.149}, {"measurement": "relative viability", "setting": "NCI-H358; first compound 0.6325 µM", "value": 0.15}, {"measurement": "relative viability", "setting": "NCI-H358; first compound 2 µM", "value": 0.119}, {"measurement": "relative viability", "setting": "NCI-H358; first compound 6.325 µM", "value": 0.116}, {"measurement": "relative viability", "setting": "NCI-H358; first compound 20 µM", "value": 0.133}, {"measurement": "relative viability", "setting": "HCC-44; first compound 0.2 µM", "value": 1.05}, {"measurement": "relative viability", "setting": "HCC-44; first compound 0.6325 µM", "value": 1.07}, {"measurement": "relative viability", "setting": "HCC-44; first compound 2 µM", "value": 1.06}, {"measurement": "relative viability", "setting": "HCC-44; first compound 6.325 µM", "value": 1.13}, {"measurement": "relative viability", "setting": "HCC-44; first compound 20 µM", "value": 0.304}, {"measurement": "relative viability", "setting": "NCI-H838; first compound 0.2 µM", "value": 0.463}, {"measurement": "relative viability", "setting": "NCI-H838; first compound 0.6325 µM", "value": 0.572}, {"measurement": "relative viability", "setting": "NCI-H838; first compound 2 µM", "value": 0.544}, {"measurement": "relative viability", "setting": "NCI-H838; first compound 6.325 µM", "value": 0.353}, {"measurement": "relative viability", "setting": "NCI-H838; first compound 20 µM", "value": 0.178}, {"measurement": "relative viability", "setting": "SW 900; first compound 0.2 µM", "value": 0.831}, {"measurement": "relative viability", "setting": "SW 900; first compound 0.6325 µM", "value": 0.886}, {"measurement": "relative viability", "setting": "SW 900; first compound 2 µM", "value": 0.718}, {"measurement": "relative viability", "setting": "SW 900; first compound 6.325 µM", "value": 0.196}, {"measurement": "relative viability", "setting": "SW 900; first compound 20 µM", "value": 0.21}, {"measurement": "relative viability", "setting": "EMC-BAC-2; first compound 0.2 µM", "value": 0.889}, {"measurement": "relative viability", "setting": "EMC-BAC-2; first compound 0.6325 µM", "value": 0.799}, {"measurement": "relative viability", "setting": "EMC-BAC-2; first compound 2 µM", "value": 0.702}, {"measurement": "relative viability", "setting": "EMC-BAC-2; first compound 6.325 µM", "value": 0.73}, {"measurement": "relative viability", "setting": "EMC-BAC-2; first compound 20 µM", "value": 0.355}, {"measurement": "relative viability", "setting": "NCI-H522; first compound 0.2 µM", "value": 0.727}, {"measurement": "relative viability", "setting": "NCI-H522; first compound 0.6325 µM", "value": 0.654}, {"measurement": "relative viability", "setting": "NCI-H522; first compound 2 µM", "value": 0.834}, {"measurement": "relative viability", "setting": "NCI-H522; first compound 6.325 µM", "value": 0.897}, {"measurement": "relative viability", "setting": "NCI-H522; first compound 20 µM", "value": 0.675}, {"measurement": "relative viability", "setting": "NCI-H520; first compound 0.2 µM", "value": 0.625}, {"measurement": "relative viability", "setting": "NCI-H520; first compound 0.6325 µM", "value": 0.707}, {"measurement": "relative viability", "setting": "NCI-H520; first compound 2 µM", "value": 0.652}, {"measurement": "relative viability", "setting": "NCI-H520; first compound 6.325 µM", "value": 0.529}, {"measurement": "relative viability", "setting": "NCI-H520; first compound 20 µM", "value": 0.289}, {"measurement": "relative viability", "setting": "LU99A; first compound 0.2 µM", "value": 0.571}, {"measurement": "relative viability", "setting": "LU99A; first compound 0.6325 µM", "value": 0.611}, {"measurement": "relative viability", "setting": "LU99A; first compound 2 µM", "value": 0.604}, {"measurement": "relative viability", "setting": "LU99A; first compound 6.325 µM", "value": 0.469}, {"measurement": "relative viability", "setting": "LU99A; first compound 20 µM", "value": 0.164}, {"measurement": "relative viability", "setting": "EKVX; first compound 0.2 µM", "value": 0.304}, {"measurement": "relative viability", "setting": "EKVX; first compound 0.6325 µM", "value": 0.287}, {"measurement": "relative viability", "setting": "EKVX; first compound 2 µM", "value": 0.289}, {"measurement": "relative viability", "setting": "EKVX; first compound 6.325 µM", "value": 0.267}, {"measurement": "relative viability", "setting": "EKVX; first compound 20 µM", "value": 0.269}, {"measurement": "relative viability", "setting": "BEN; first compound 0.2 µM", "value": 1.22}, {"measurement": "relative viability", "setting": "BEN; first compound 0.6325 µM", "value": 1.1}, {"measurement": "relative viability", "setting": "BEN; first compound 2 µM", "value": 1.03}, {"measurement": "relative viability", "setting": "BEN; first compound 6.325 µM", "value": 1.1}, {"measurement": "relative viability", "setting": "BEN; first compound 20 µM", "value": 0.578}]}]}
